Assay results as given in US12060592B2, “Lov-D acyltransferase mediated acylation” (priority 2009, dated 2024).

Molecular target: T1, LovD acyltransferase (Aspergillus terreus, UniProt Q9Y7D1)
T1 sequence (Q9Y7D1 1-413): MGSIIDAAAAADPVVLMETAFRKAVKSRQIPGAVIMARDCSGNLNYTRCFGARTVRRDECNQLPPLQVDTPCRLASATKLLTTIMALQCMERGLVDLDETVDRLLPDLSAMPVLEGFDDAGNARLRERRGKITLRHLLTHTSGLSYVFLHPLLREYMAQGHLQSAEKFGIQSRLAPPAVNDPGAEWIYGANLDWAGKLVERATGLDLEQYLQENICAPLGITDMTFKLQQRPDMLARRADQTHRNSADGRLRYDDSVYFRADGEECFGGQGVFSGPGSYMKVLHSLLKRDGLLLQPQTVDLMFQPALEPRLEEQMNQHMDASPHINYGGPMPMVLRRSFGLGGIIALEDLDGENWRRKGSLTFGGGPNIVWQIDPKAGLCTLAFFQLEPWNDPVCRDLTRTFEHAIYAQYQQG
Assay: LovD acyltransferase mediated acylation: relative activity of thioester acyl donors
Format: biochemical
Conditions: thioester as acyl donor
Source text: Any one or more compounds shown in Table 1 may be used as thioesters in the methods of the present disclosure. Compound IV is one preferred thioester as its relative activity is high.

Row | Compound | Relative activity at 24 h (%)
1 | CCC(C)(C)C(=O)SCCC(=O)OC [Compound IV] | ++++ (++++ = 75-100)
2 | CCCCSC(=O)C(C)(C)CC [IX] | +++ (+++ = 10-75)
3 | CCC(C)(C)C(=O)SC(C)C [VIII] | + (+ = 0-1)
4 | CCSC(=O)C(C)(C)CC [VII] | ++ (++ = 1-10)
5 | CCC(C)(C)C(=O)SC [VI] | + (+ = 0-1)
6 | CCC(C)(C)C(=O)SCC(=O)OC [V] | ++ (++ = 1-10)
